# Experimental data taken from paper PMC9607081 (Membranes, 2022).
# Positions count from the first letter of the chain named. Like-named read-outs stand apart in the source and are kept apart here.
# Assays:
# Type in all cases: cell-based
# human GlyR α1 subunit WT = molecular target: T1, human GlyR α1 subunit WT (Homo sapiens, UniProt P23415); experiment: Two-electrode voltage clamp of Xenopus oocytes expressing WT GlyR; conditions: for nH (Hill coefficient): Table 1, n = 5; for EC50: Table 1, −60 mV; for % ImaxTau /ImaxGly: Tau maximal current relative to Gly maximal current
# T1 construct: expressed in transfected cells; host or cells: Xenopus laevis oocytes injected with receptor mRNA
# T1 sequence (P23415 29-457): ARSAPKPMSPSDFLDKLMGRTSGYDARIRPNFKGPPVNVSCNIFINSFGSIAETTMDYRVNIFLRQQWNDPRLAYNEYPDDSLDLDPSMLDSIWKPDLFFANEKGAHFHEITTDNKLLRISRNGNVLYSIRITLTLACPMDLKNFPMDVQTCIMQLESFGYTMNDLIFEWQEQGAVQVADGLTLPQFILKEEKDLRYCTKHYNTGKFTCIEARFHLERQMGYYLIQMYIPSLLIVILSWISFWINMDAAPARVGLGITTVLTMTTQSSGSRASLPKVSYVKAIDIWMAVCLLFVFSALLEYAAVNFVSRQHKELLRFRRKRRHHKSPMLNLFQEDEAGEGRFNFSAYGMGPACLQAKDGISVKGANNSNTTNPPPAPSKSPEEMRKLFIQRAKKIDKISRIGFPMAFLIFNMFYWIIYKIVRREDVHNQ
# Procedure: (§1) Injection volumes were 50–100 nL per cell.
# (§2) All experiments were performed at 22–25 °C. […] The holding potential was −60 mV unless otherwise specified.
# [1] = molecular target: T2, human GlyR α1 subunit P96A (Homo sapiens, UniProt P23415, P124A); experiment: Two-electrode voltage clamp of Xenopus oocytes expressing P96A GlyR; conditions: for nH (Hill coefficient): Table 1, n = 5; for EC50: Table 1, −60 mV
# T2 construct: expressed in transfected cells; host or cells: Xenopus laevis oocytes injected with receptor mRNA
# T2 sequence (P23415 29-457 P124A): T1 sequence (P23415 29-457) with P96A
# Procedure: as §1, §2
# [2] = molecular target: T3, human GlyR α1 subunit P146 (CysL) substituted with Pro (Homo sapiens, UniProt P23415); experiment: TEVC, oocytes, nonsense suppression, P146 Pro recovery; conditions: for EC50: Table 3, nonsense suppression
# T3 construct: expressed in transfected cells; host or cells: Xenopus laevis oocytes injected with receptor mRNA
# T3 sequence (P23415 29-457): T1 sequence (P23415 29-457)
# Procedure: Injection volumes were 50–100 nL per cell. […] The holding potential was −60 mV unless otherwise specified.
# [3] = molecular target: T4, human GlyR α1 subunit P146 (CysL) substituted with CFP (Homo sapiens, UniProt P23415, P174X); experiment: TEVC, oocytes, nonsense suppression, P146 CFP
# T4 sequence (P23415 29-457 P174X): T1 sequence (P23415 29-457) with P146X
# Procedure: (§3) The cDNA for the human GlyR α1 subunit was in pGEMHE (ThermoFischer Scientific, Bishops Stortford, UK). Site-directed mutagenesis was performed using QuikChange (Agilent Technologies, Milton Keynes, UK) to generate the appropriate codon. For non-canonical amino acid mutants and conventional mutants generated by nonsense suppression, the site of interest was mutated to the TAG stop codon. Receptor mRNA was then prepared by in vitro runoff transcription using the Ambion T7 mMessage mMachine kit (ThermoFischer Scientific, Bishops Stortford, UK). Noncanonical amino acids were ligated to tRNA as previously described.
# (§4) Stage V-VI oocytes of Xenopus laevis were harvested and injected with RNAs as described previously. For nonsense suppression experiments, each cell was injected with 50–100 ng each of receptor mRNA and tRNA charged with the appropriate Pro analogue ~48 h before recording. For wild type and conventional mutants, each cell received a single injection of 10–25 ng of receptor mRNA ~24 h before recording. Injection volumes were 50–100 nL per cell.
# (§5) As a negative control for suppression experiments at each site, unligated tRNA was co-injected with mRNA in the same manner as charged tRNA. […] Pro recovery (injecting tRNA charged with Pro to regenerate a wild type channel via nonsense suppression) was used alongside Pro analogues as a positive control.
# (§6) Two-electrode voltage clamping of Xenopus oocytes was performed using standard electrophysiological procedures as previously, using an OpusXpress system (Axon Instruments, Inc., Union City, CA, USA). All experiments were performed at 22–25 °C. […] The holding potential was −60 mV unless otherwise specified. […] Data were analysed using Prism (GraphPad Software Inc., San Diego, CA, USA), fitting concentration-response data to the four-parameter logistic equation. Statistical analysis was performed using ANOVA with a Dunnett’s multiple comparisons post test.
# [4] = molecular target: T5, human GlyR α1 subunit P146 (CysL) substituted with 2MeP (Homo sapiens, UniProt P23415, P174X); experiment: TEVC, oocytes, nonsense suppression, P146 2MeP; conditions: for EC50: n = 3
# T5 sequence (P23415 29-457 P174X): T1 sequence (P23415 29-457) with P146X
# Procedure: as §3, §4, §5, §6
# [5] = n = 5, read-out: pEC50 (converted)
compound,measurement,setting,value
"NCC(=O)O [Gly, glycine]",nH (Hill coefficient),human GlyR α1 subunit WT,2.3 ± 0.5
same,nH (Hill coefficient),[1],2.2 ± 0.3
same,nH,"[2]; Table 2, n = 6",2.5 ± 0.4
same,nH,"[2]; Table 3, n = 4",3.2 ± 1.6
same,nH,"[3]; Table 2, P146 CFP, n = 6",3.7 ± 0.6
same,nH,"[3]; Table 3, P146 CFP, n = 3",3.0 ± 0.5
same,nH,"[4]; Table 2, n = 6",2.2 ± 0.5
same,nH,"[4]; Table 3, n = 3",3.6 ± 0.2
"NCCS(=O)(=O)O [Tau, taurine]",nH (Hill coefficient),human GlyR α1 subunit WT,1.7 ± 0.3
same,EC50,"human GlyR α1 subunit WT; n = 5, read-out: EC50",583 µM
same,EC50,human GlyR α1 subunit WT; [5],582 µM
same,% ImaxTau /ImaxGly,human GlyR α1 subunit WT; n = 5,50 ± 4%
same,% ImaxTau /ImaxGly,"human GlyR α1 subunit WT; n = 5, listed as Taurine",50%
same,nH (Hill coefficient),[1],1.9 ± 0.2
same,EC50,"[1]; n = 5, read-out: EC50",2440 µM
same,EC50,[1]; [5],2440 µM
same,% ImaxTau /ImaxGly,[1]; n = 5,36 ± 2 %
same,% ImaxTau /ImaxGly,"[2]; Table 3, n = 4",43 ± 5%
same,nH,"[2]; Table 3, n = 4",1.5 ± 0.3
same,EC50,"[2]; n = 4, read-out: EC50",1030 µM
same,EC50,"[2]; n = 4, read-out: pEC50 (converted)",1040 µM
same,EC50,[3],579 µM
same,nH,"[3]; Table 3, P146 CFP, n = 3",2.1 ± 0.2
same,Emax,"[3]; Table 3, P146 CFP, n = 3, read-out: % ImaxTau /ImaxGly",71 ± 3%
same,EC50,"[4]; EC50, Table 3, nonsense suppression",3180 µM
same,nH,"[4]; Table 3, n = 3",2.4 ± 0.6
same,Emax,"[4]; Table 3, n = 3, read-out: % ImaxTau /ImaxGly",18 ± 2%
same,EC50,"[4]; pEC50, Table 3, nonsense suppression",3180 µM
